Measurements as given in ChEMBL document CHEMBL3734758, “Protective effects of 5,7,4'-trihydroxy-6,3'dimethoxy-flavone 5-O-α-l-rhamnopyranoside, isolated from Annona squamosa leaves in thyrotoxicosis and in hepatic lipid peroxidation in rats” (Bioorg Med Chem Lett, 2015).
Active and inactive are the calls of the source. The rule behind the calls is not given here.

Columns and labels:
Rattus norvegicus [1] = experiment: Inhibition of L-T4-induced decrease in GSH level in albino Wistar rat liver at 5 mg/kg/day, po cotreated with 0.5 mg/kg L-T4 for 15 days; format: functional, organism-based
Rattus norvegicus [2] = experiment: Inhibition of L-T4-induced increase in T3 level in albino Wistar rat at 10 mg/kg/day, po cotreated with 0.5 mg/kg L-T4 for 15 days by RIA (reference value: 1.55 +/- 0.131 ng/ml); format: functional
Rattus norvegicus [3] = experiment: Inhibition of L-T4-induced increase in lipid peroxidation in albino Wistar rat assessed as malondialdehyde formed per mg of protein at 5 mg/kg/day, po cotreated with 0.5 mg/kg L-T4 for 15 days (reference value: 0.977 +/- 0.035 nM/hr); format: functional
Rattus norvegicus [4] = experiment: Inhibition of L-T4-induced decrease in high-density lipoprotein cholesterol in albino Wistar rat at 5 mg/kg/day, po cotreated with 0.5 mg/kg L-T4 for 15 days (reference value: 20.18 +/- 2.32 mg/dl); format: functional
Rattus norvegicus [5] = experiment: Inhibition of L-T4-induced increase in T4 level in albino Wistar rat at 10 mg/kg/day, po cotreated with 0.5 mg/kg L-T4 for 15 days by RIA (reference value: 112.86 +/- 4.77 ng/ml); format: functional
Rattus norvegicus [6] = experiment: Inhibition of L-T4-induced increase in hepatic 5-monodeiodinase-l activity in albino Wistar rat assessed as T3 formation at 5 mg/kg/day, po cotreated with 0.5 mg/kg L-T4 for 15 days by RIA; format: functional, organism-based
Rattus norvegicus [7] = experiment: Inhibition of L-T4-induced increase in lipid peroxidation in albino Wistar rat assessed as malondialdehyde formed per mg of protein at 2.5 mg/kg/day, po cotreated with 0.5 mg/kg L-T4 for 15 days (reference value: 0.977 +/- 0.035 nM/hr); format: functional
Rattus norvegicus [8] = experiment: Inhibition of L-T4-induced increase in T4 level in albino Wistar rat at 2.5 mg/kg/day, po cotreated with 0.5 mg/kg L-T4 for 15 days by RIA (reference value: 112.86 +/- 4.77 ng/ml); format: functional
Rattus norvegicus [9] = experiment: Toxicity in albino Wistar rat assessed as very low-density lipoprotein cholesterol level at 5 mg/kg/day, po for 15 days (reference value: 14.85 +/- 2.43 mg/dl); format: organism-based; conditions: in vivo, 360 h
Rattus norvegicus [10] = experiment: Inhibition of L-T4-induced increase in Glucose-6-phosphate activity in albino Wistar rat at 5 mg/kg/day, po cotreated with 0.5 mg/kg L-T4 for 15 days […]; format: functional, organism-based
Rattus norvegicus [11] = experiment: Toxicity in albino Wistar rat assessed as high-density lipoprotein cholesterol level at 5 mg/kg/day, po for 15 days (reference value: 45.52 +/- 3.08 mg/dl); format: organism-based; conditions: in vivo, 360 h
Rattus norvegicus [12] = experiment: Inhibition of L-T4-induced increase in T4 level in albino Wistar rat at 5 mg/kg/day, po cotreated with 0.5 mg/kg L-T4 for 15 days by RIA (reference value: 112.86 +/- 4.77 ng/ml); format: functional
Rattus norvegicus [13] = experiment: Inhibition of L-T4-induced decrease in total cholesterol level in albino Wistar rat at 5 mg/kg/day, po cotreated with 0.5 mg/kg L-T4 for 15 days (reference value: 58.77 +/- 3.95 mg/dl); format: functional
Rattus norvegicus [14] = experiment: Inhibition of L-T4-induced decrease in SOD activity in albino Wistar rat liver at 5 mg/kg/day, po cotreated with 0.5 mg/kg L-T4 for 15 days; format: functional, organism-based
Rattus norvegicus [15] = experiment: Inhibition of L-T4-induced increase in lipid peroxidation in albino Wistar rat assessed as malondialdehyde formed per mg of protein at 10 mg/kg/day, po cotreated with 0.5 mg/kg L-T4 for 15 days (reference value: 0.977 +/- 0.035 nM/hr); format: functional
Rattus norvegicus [16] = experiment: Inhibition of L-T4-induced increase in T3 level in albino Wistar rat at 5 mg/kg/day, po cotreated with 0.5 mg/kg/day L-T4 for 15 days by RIA (reference value: 1.55 +/- 0.131 ng/ml); format: functional
Rattus norvegicus [17] = experiment: Toxicity in albino Wistar rat assessed as triglyceride level at 5 mg/kg/day, po for 15 days (reference value: 73.33 +/- 3.1 mg/dl); format: organism-based; conditions: in vivo, 360 h
Rattus norvegicus [18] = experiment: Inhibition of L-T4-induced decrease in triglyceride level in albino Wistar rat at 5 mg/kg/day, po cotreated with 0.5 mg/kg L-T4 for 15 days (reference value: 42.15 +/- 3.23 mg/dl); format: functional
Rattus norvegicus [19] = experiment: Inhibition of L-T4-induced decrease in very low-density lipoprotein cholesterol in albino Wistar rat at 5 mg/kg/day, po cotreated with 0.5 mg/kg L-T4 for 15 days (reference value: 8.65 +/- 2.76 mg/dl); format: functional
Rattus norvegicus [20] = experiment: Inhibition of L-T4-induced decrease in low-density lipoprotein cholesterol in albino Wistar rat at 5 mg/kg/day, po cotreated with 0.5 mg/kg L-T4 for 15 days (reference value: 31.68 +/- 4.25 mg/dl); format: functional
Rattus norvegicus [21] = experiment: Toxicity in albino Wistar rat assessed as total cholesterol level at 5 mg/kg/day, po for 15 days (reference value: 114.97 +/- 4.76 mg/dl); format: organism-based; conditions: in vivo, 360 h
Rattus norvegicus [22] = experiment: Toxicity in albino Wistar rat assessed as low-density lipoprotein cholesterol level at 5 mg/kg/day, po for 15 days (reference value: 83.85 +/- 2.96 mg/dl); format: organism-based; conditions: in vivo, 360 h
Rattus norvegicus [23] = experiment: Inhibition of L-T4-induced decrease in catalase activity in albino Wistar rat liver assessed as H2O2 decomposition at 5 mg/kg/day, po cotreated with 0.5 mg/kg L-T4 for 15 days by spectrophotmetry; format: functional, organism-based
Rattus norvegicus [24] = experiment: Inhibition of L-T4-induced loss of body weight in albino Wistar rat assessed as increase in body weight at 5 mg/kg/day, po cotreated with 0.5 mg/kg L-T4 for 15 days […]; format: functional, organism-based
Rattus norvegicus [25] = experiment: Inhibition of L-T4-induced increase in T3 level in albino Wistar rat at 2.5 mg/kg/day, po cotreated with 0.5 mg/kg L-T4 for 15 days by RIA (reference value: 1.55 +/- 0.131 ng/ml); format: functional

COc1cc(-c2cc(=O)c3c(O[C@@H]4O[C@@H](C)[C@H](O)[C@@H](O)[C@H]4O)c(OC)c(O)cc3o2)ccc1O
inhibition (Rattus norvegicus [1]): Active | Activity (Rattus norvegicus [2]): 1.39 ng/mL | Activity (Rattus norvegicus [3]): 0.239 nM/h | Activity (Rattus norvegicus [4]): 40.95 mg/dL | Activity (Rattus norvegicus [5]): 102.45 ng/mL | inhibition (Rattus norvegicus [6]): Active | Activity (Rattus norvegicus [7]): 0.619 nM/h | Activity (Rattus norvegicus [8]): 98.6 ng/mL | Activity (Rattus norvegicus [9]): 12.91 mg/dL | inhibition (Rattus norvegicus [10]): Active | Activity (Rattus norvegicus [11]): 48.97 mg/dL | Activity (Rattus norvegicus [12]): 56.7 ng/mL | Activity (Rattus norvegicus [13]): 98.14 mg/dL | inhibition (Rattus norvegicus [14]): Active | Activity (Rattus norvegicus [15]): 0.512 nM/h | Activity (Rattus norvegicus [16]): 0.43 ng/mL | Activity (Rattus norvegicus [17]): 61.1 mg/dL | Activity (Rattus norvegicus [18]): 68.31 mg/dL | Activity (Rattus norvegicus [19]): 14.09 mg/dL | Activity (Rattus norvegicus [20]): 72.42 mg/dL | Activity (Rattus norvegicus [21]): 96.22 mg/dL | Activity (Rattus norvegicus [22]): 60.16 mg/dL | inhibition (Rattus norvegicus [23]): Active | Activity (Rattus norvegicus [24]): Active | Activity (Rattus norvegicus [25]): 1.01 ng/mL
